The values below come from patent publication US7166599B2, “Trisubstituted pyrimidines” (Boehringer Ingelheim Pharma GmbH & Co. KG, priority 2001, dated 2007).

The term melting point denotes the temperature, or range, at which the solid turns liquid. A word on the IC50: it is the midpoint of a concentration-inhibition curve. The low end stands for inhibition by little substance, the high end for a need for much substance.

Test system in one data set: not given
Assay: not given
Details: not given
As for `CNc1nc(Nc2cccc(OCCN)c2)ncc1[N+](=O)[O-].Cl.Cl`, the melting point was 270 °C. Same read-out and setting: under `CNc1nc(Nc2ccc(S(C)(=O)=O)cc2)ncc1[N+](=O)[O-]` [Example 10 b), 2-(4-methylsulphonylphenylamino)-4-methylamino-5-nitropyrimidine] stands 323 °C. In turn, `CNc1nc(Nc2ccc([S+](C)[O-])cc2)ncc1[N+](=O)[O-]` (stereo not drawn) [Example 10 a), 2-(4-methylsulphinylphenylamino)-4-methylamino-5-nitropyrimidine] registered a melting point of 288 °C.

Another data set has as its system γ-secretase. The data set is described as follows: γ-secretase HTS luciferase reporter assay (inhibition of Aβ formation) in H4 neuroglioma cells stably carrying pFRLuc and Aβ-KKK/Gal4. Type of data set: cell-based. Particulars: luciferase activity (Steady-Glo) in doubly stable H4 neuroglioma HTS cell line, test substance incubated overnight (8–16 h), compared with control. From the text:
The inhibition of Aβ formation was investigated using the following test system:
Preparation of a suitable γ-secretase HTS cell line:
H4 neuroglioma cells (Accession number HTB 148 at the “American Type Culture Collection”, Manassas, Va., USA) were transfected under standard conditions with the reporter construct pFRLuc (Stratagene) which carries the gene for luciferase. By transient transfection experiments with pcDNA3-Gal4 which codes for the soluble Gal4, an individual clone having the highest luciferase activity was selected. In order to prepare the Aβ-KKK/Gal4 construct, a sequence containing the N-terminal signal sequence of APP and the first 55 amino acids of Aβ (Shoji et al, 1992) was linked to the Gal4 coding sequence (Laughan, A and Gesteland, R Molec. Cell Biol., 1984, 4: 260–267) by genetic engineering and cloned into the expression vector pcDNA3neo (Invitrogen). This construct was called pcDNA3-AβKKK/Gal4. In order to insert an ER-retention signal in the substrate of the γ-secretase, the last nucleotides of the Gal4 were altered by genetic engineering so that they coded for the amino acids KKLI. This construct was named Aβ-KKK-ER. The cell clone obtained as described above was used for the second stable transfection with pcDNA3-Aβ-KKK/Gal4 or pcDNA3-Aβ-KKK-ER and the selection with neomycin was carried out under standard conditions (Sambrook and Maniatis, 1989). Individual neomycin-resistant cell clones were investigated for their expression of luciferase. The clones with the highest expression were used for the substance analyses. All the transfections were carried out using the Fugene transfection system supplied by Boehringer Mannheim, in accordance with the manufacturer's instructions.
The doubly stabile HTS cell line is seeded onto a 96/384 microtitre plate. When the cells are confluent, they are incubated with the particular test substance for a specified length of time. After incubation the cell medium is removed and the luciferase enzyme activity is determined precisely as instructed by the manufacturer of the test kit used (SteadyGlo, Promega).
As a result of the presence of an endogenous γ-secretase activity in the H4 cells the substrate (Aβ-KKK/Gal4) is cleaved proteolytically, while the transactivator Gal4 is able to become detached from the membrane and enter the cell nucleus. In the cell nucleus Gal4 binds to the Gal4-DNA binding domain of the reporter construct and thus activates the expression of the luciferase. If a specific γ-secretase inhibitor is present the substrate cannot be cleaved and Gal4 remains bound to the substrate on the cell membrane, leading to a reduction amounting to total inhibition of the luciferase activity.
Cells are seeded on 96/384 well plates in DMEM complete medium (10% FCS, 1% glutamine, 1% penicillin/streptomycin) in a dilution of 1:5. The cells are incubated for 24 to 48 h (depending on the cell clone and the dilution used) at 37° C., 5% CO2 and allowed to grow until 80–90% confluence is achieved. Then the test substance is added and the preparation is incubated overnight (8–16 h) at 37° C. and 5% CO2. The 96/384 well plates are equilibrated to ambient temperature (RT). The “Steady-Glo” Luciferase Assay System Kit (Promega catalogue no. E2520) is used. The Luciferase Assay Reagent is thawed and equilibrated to ambient temperature or freshly prepared (Luciferase Assay Substrate dissolved in Luciferase Assay Buffer). The medium is suction filtered […]. 100 μl (based on 96 well plates) of fresh complete medium are added per well. 100 μl (based on 96 well plates) of Luciferase Assay Reagent are added and the preparation is incubated for 5 min at RT. Then the luminescence is measured. For 384 well plates the quantities pipetted are reduced accordingly.
The measurements are compared with the control and then the IC50 is determined from a number of measurements.
A general note: In a reporter assay the amount or activity of a reporter protein is the signal.
In the case of `CNc1nc(Nc2ccc(Cl)c(Cl)c2)ncc1NC(N)=O` [3 (40), 2-(3,4-dichlorophenylamino)-4-methylamino-5-aminocarbonylamino-pyrimidine], inhibition was half-maximal at 350 nM (IC50). Same read-out and setting: the figure for `CNc1nc(Nc2cccc(Cl)c2)ncc1NC(=O)N1CCOCC1` [3 (59), 2-(3-chlorophenylamino)-4-methylamino-5-(morpholinocarbonylamino)-pyrimidine] is 150 nM; for `CCNc1nc(Nc2ccc(Cl)c(Cl)c2)ncc1NC(=O)N1CCOCC1` [3 (55), 2-(3,4-dichlorophenylamino)-4-ethylamino-5-(morpholinocarbonylamino)-pyrimidine] it is 900 nM. Same read-out and setting: under `CNc1nc(Nc2ccc(Cl)c(Cl)c2)ncc1NS(C)(=O)=O` [3 (3), 2-(3,4-dichlorophenylamino)-4-methylamino-5-methylsulphonylamino-pyrimidine] stands 60 nM; under `CNc1nc(Nc2ccc(Cl)cc2)ncc1[N+](=O)[O-]` [1 (1), 2-(4-chlorophenylamino)-4-methylamino-5-nitro-pyrimidine], 800 nM; under `CNc1nc(Nc2ccc(Cl)c(Cl)c2)ncc1NC(=S)N1CCOCC1` [11 (12), 2-(3,4-dichlorophenylamino)-4-methylamino-5-(morpholinothiocarbonylamino)-pyrimidine], 1000 nM. Take `CNc1nc(Nc2ccc(Cl)c(Cl)c2)ncc1NC(=O)N1CCNCC1` [11 (6), 2-(3,4-dichlorophenylamino)-4-methylamino-5-(piperazinocarbonylamino)-pyrimidine]: the IC50 was 700 nM. Same read-out and setting: under `CNc1nc(Nc2ccc(Cl)c(Cl)c2)ncc1NC(C)=O` [3 (4), 2-(3,4-dichlorophenylamino)-4-methylamino-5-acetylamino-pyrimidine] stands 60 nM; under `CNc1nc(Nc2ccc(Cl)c(Cl)c2)ncc1NC(=O)N(CCOC)CCOC` [11 (3), 2-(3,4-dichlorophenylamino)-4-methylamino-5-[[bis-(2-methoxyethyl)amino]-carbonylamino]-pyrimidine], 4 nM.

`CNc1nc(Nc2ccc(Cl)c(Cl)c2)ncc1N` [2 (1), 2-(3,4-dichlorophenylamino)-4-methylamino-5-amino-pyrimidine]: half-maximal inhibition (IC50) was put at 1000 nM. Same read-out and setting: under `CNc1nc(Nc2ccc(Cl)c(Cl)c2)ncc1NC(=O)N(C)CCN(C)C` [11 (10), 2-(3,4-dichlorophenylamino)-4-methylamino-5-[[N-methyl-(2-dimethylamino-ethyl)amino]carbonylamino]-pyrimidine] stands 800 nM; under `CNc1nc(Nc2ccc(Cl)c(Cl)c2)ncc1NC(=O)N1CCCC1` [Example 11, 2-(3,4-dichlorophenylamino)-4-methylamino-5-(pyrrolidinocarbonylamino)-pyrimidine], 100 nM; under `CNc1nc(Nc2ccc(Cl)c(Cl)c2)ncc1N(C)S(C)(=O)=O` [Example 8, 2-(3,4-dichlorophenylamino)-4-methylamino-5-(N-methyl-methylsulphonylamino)-pyrimidine], 1100 nM.

In turn, `CNc1nc(N(C)c2ccc(Cl)c(Cl)c2)ncc1N1CCNC1=O` [8 (2), 2-[N-(3,4-dichlorophenyl)-N-methylamino]-4-methylamino-5-(imidazolidin-2-on-1-yl)-pyrimidine] showed an IC50 of 1000 nM. In the case of `CNc1nc(Nc2ccc(Cl)c(Cl)c2)ncc1NC(=O)N(C)CCCN(C)C` [11 (11), 2-(3,4-dichlorophenylamino)-4-methylamino-5-[[N-methyl-(3-dimethylaminopropyl)amino]carbonylamino]-pyrimidine], the IC50 is 700 nM. Same read-out and setting: under `CNc1nc(Nc2ccc(Cl)c(Cl)c2)ncc1NC(=O)N(C)CCO` [11 (8), 2-(3,4-dichlorophenylamino)-4-methylamino-5-[[N-methyl-(2-hydroxyethyl)-amino]carbonylamino]-pyrimidine] stands 200 nM; under `CNc1nc(Nc2ccc(Cl)cc2F)ncc1NC(=O)N(C)C` [3 (36), 2-(4-chloro-2-fluorophenylamino)-4-methylamino-5-(N,N-dimethylcarbamoyl-amino)-pyrimidine], 250 nM; under `CCN(CC)C(=O)Nc1cnc(Nc2ccc(Cl)c(Cl)c2)nc1NC` [11 (5), 2-(3,4-dichlorophenylamino)-4-methylamino-5-(diethylaminocarbonylamino)-pyrimidine], 100 nM. On the same count and under the same terms, the figure for `CNc1nc(Nc2ccc(Cl)c(Cl)c2)ncc1N1CCCNC1=O` [3 (33), 2-(3,4-dichlorophenylamino)-4-methylamino-5-(tetrahydro-2(1H)-pyrimidinon-1-yl)-pyrimidine] is 300 nM; for `CNc1nc(Nc2ccc(Cl)c(Cl)c2)ncc1N1CCNC1=O` [3 (26), 2-(3,4-dichlorophenylamino)-4-methylamino-5-(imidazolidin-2-on-1-yl)-pyrimidine] it is 600 nM; for `CNc1nc(Nc2ccc(Cl)c(Cl)c2)ncc1NC(=O)N1CCN(C(C)=O)CC1` [11 (7), 2-(3,4-dichlorophenylamino)-4-methylamino-5-(4-acetylpiperazinocarbonylamino)-pyrimidine] it is 1000 nM. Same read-out and setting: under `CNc1nc(Nc2ccc(Cl)c(Cl)c2)ncc1NC(=O)C(F)(F)F` [3 (66), 2-(3,4-dichlorophenylamino)-4-methylamino-5-trifluoracetylamino-pyrimidine] stands 800 nM; under `CNc1nc(Nc2ccc(Cl)c(Cl)c2)ncc1NC(=O)N1CCOCC1` [3 (30), 2-(3,4-dichlorophenylamino)-4-methylamino-5-morpholinocarbonylamino-pyrimidine], 200 nM. As to `CN(C)c1nc(Nc2ccc(Cl)c(Cl)c2)ncc1NC(=O)N1CCOCC1` [3 (54), 2-(3,4-dichlorophenylamino)-4-dimethylamino-5-(morpholinocarbonylamino)-pyrimidine], the concentration for half-maximal inhibition (IC50) turned out to be 900 nM. Still for that read-out and setting: under `CNc1nc(Nc2ccc(Cl)c(Cl)c2)ncc1NC(=O)N1CCN(C)CC1` [11 (2), 2-(3,4-dichlorophenylamino)-4-methylamino-5-(4-methylpiperazinocarbonylamino)-pyrimidine] stands 100 nM; under `CN(C)CCCNc1nc(Nc2ccc(Cl)c(Cl)c2)ncc1[N+](=O)[O-]` [4 (9), 2-(3,4-dichlorophenylamino)-4-[3-(dimethylamino)propylamino]-5-nitro-pyrimidine], 1000 nM; under `CNc1nc(Nc2ccc(Cl)c(Cl)c2)ncc1NC(=O)N1CCCCCC1` [11 (4), 2-(3,4-dichlorophenylamino)-4-methylamino-5-(hexamethyleneiminocarbonylamino)-pyrimidine], 60 nM.
